Source: patent US20080096974A2, “Polyamine-Metal Chelator Conjugates” (University of Florida Research Foundation, Inc., priority 2003, published 2008)
Structures can show the parent of a compound that is named as a salt. Where two headings read alike, the source gives them in different places.

Key:
[1] = tested on: Adenosylmethionine decarboxylase (AdoMet DC); assay: AdoMetDC activity in treated L1210 cells; format: cell-based, murine
Protocol: (§1) Ornithine decarboxylase (ODC) and Adenosylmethionine decarboxylase (AdoMet DC) activities were determined according to the procedures of Seely, J. E., Pegg, A. E., “Ornithine Decarboxylase (Mouse Kidney),” Methods Enzymol. 94: 158-161 (1983) and Pegg, A. E., Pösö, H., “S-Adenosylmethionine Decarboxylase (Rat Liver),” Methods Enzymol. 94: 234-239 (1983), respectively, on the basis of quantitation of ^14CO2 released from [^14C]carboxyl-labeled L-ornithine or S-adenosyl-L-methionine. Included in each assay were untreated L210 cells as negative controls as well as cells treated with DEHSPM, a drug having a known reproducible effect on each enzyme, as positive controls.

L1210 leukemia cells [2] = assay: Intracellular concentration / accumulation of analogue in L1210 cells (HPLC); details: for intracellular concentration over extracellular treatment concentration: 0.2 μM extracellular
Protocol: At the end of the treatment period, cell suspensions were sampled, washed three times in ice-cold, incomplete medium, and pelleted for extraction using 0.6 N perchloric acid, then freeze-fractured in liquid nitrogen/hot water three times.
During logarithmic growth, cells were treated with the compounds. At the end of the treatment period, cell suspensions were sampled, washed three times in ice-cold, incomplete medium, and pelleted for extraction using 0.6 N perchloric acid, then freeze-fractured in liquid nitrogen/hot water three times. Each supernatant was frozen at −20° C. until analysis of analogue content by HPLC,
Analytical separation was performed on a Waters Symmetry C18 column (250 mm×4.6 mm, 5 μm) with a guard column using a Rainin Instrument Company HPLC system. The buffer employed was sodium octanesulfonate (2.5 mM) in potassium phosphate (25 mM), pH 3.0. Mobile phase A consisted of 5% CH3CN, 95% buffer; mobile phase B consisted of 60% CH3CN, 40% buffer. The solvent gradient program employed a linear gradient that increased from 20% mobile phase B to 40% mobile phase B over 40 min and a 5-min ramp to 100% B over 5 min. Post-column derivatization used a boric acid buffer system (H3BO3, 3.1% w/v; KOH, 2.6% w/v; 2-mercaptoethanol, 0.6% v/v) that contained o-phthaldialdehyde (10 mL of a 4% w/v solution in CH3OH per L of buffer). The flow rate was 0.4 mL/min, isocratic; UV detection (λex, 340 nm; λem, 445 nm) was utilized.
Analytical separation was performed on a reversed-phase Supelco Discovery RP Amide C16 column (150×4.6 mm, 5 μm) on the system described above, and UV detection was at 300 nm. The mobile phases were pumped at a flow rate of 1.5 mL/min. The buffer and mobile phases A and B were the same as described above. The solvent gradient program employed an initial 10-min isocratic portion with 5% mobile phase B (95% A), followed by a linear gradient increase to 80% mobile phase B at 35 min, a 5-min ramp to 100% B held for 10 min, and ramping back to 5% mobile phase B for 8 min (58-65 min total).
In both cases, the concentrations were calculated from the peak area fitted to calibration curves by nonweighted least squares linear regression with Rainin Dynamax HPLC Method Manager software (Rainin Instrument Co.).

[3] = tested on: Murine L1210 leukemia cells; assay: L1210 cell growth inhibition (IC50); format: cell-based
Protocol: Murine L1210 leukemia cells were maintained in logarithmic growth as a suspension culture in RPMI-1640 medium (Gibco, Grand Island, N.Y.) containing 10% fetal bovine serum (Gibco), 2% HEPES-MOPS buffer, 1 mM L-glutamine (Gibco), and 1 mM aminoguanidine at 37° C. in a water-jacketed 5% CO2 incubator.
Cells were grown in 25 cm^2 tissue culture flasks in a total volume of 10 mL. Cultures were treated during logarithmic growth (0.5−1.0×10^5 cells/mL) with the compounds of interest, reseeded, and incubated as described in Bergeron, R. J., Müller, R., Bussenius, J., McManis, J. S., Merriman, R. L., Smith, R. E., Yao, H., Weimar, W. R., “Synthesis and Evaluation of Hydroxylated Polyamine Analogues as Antiproliferatives,” J. Med. Chem 43: 224-235 (2000). Cell counting and calculation of percent of control growth were also carried out as described in Bergeron, et al. The IC50 is defined as the concentration of compound necessary to reduce cell growth to 50% of control growth after defined intervals of exposure.

[4] = tested on: Ornithine decarboxylase (ODC); assay: ODC activity in treated L1210 cells; format: cell-based, murine
Protocol: as §1

[5] = tested on: Spermidine/spermine N^1-acetyl transferase (SSAT); assay: SSAT activity in treated L1210 cells; format: cell-based, murine
Description: Spermidine/spermine N^1-acetyl transferase (SSAT) activity was based on quantitation of [^14C]-N^1-acetylspermidine formed by acetylation of SPD with [^14C]-acetyl coenzyme A according to the method of Libby, P. R., Bergeron, R. J., Porter, C. W., “Structure-Function Correlations of Polyamine Analog-Induced Increases in Spermidine/Spermine Acetyltransferase Activity,” Biochem. Pharmacol. 38: 1435-1442 (1989). Cells treated with DENSPM were positive controls.

polyamine transporter [6] = assay: Competition with [3H]SPD for uptake into L1210 cells (polyamine transporter, Ki); format: cell-based, murine; details: for Ki: L1210 cell suspensions, read-out: Ki, competition with [3H]SPD for the polyamine transport apparatus
Description: The compounds of interest were studied for their ability to compete with [^3H]SPD for uptake into L1210 leukemia cell suspensions in vitro as described in Bergeron, R. J., Hawthorne, T. R., Vinson, J. R. T., Beck, D. L., Jr., Ingeno, M. J., “Role of the Methylene Backbone in the Antiproliferative Activity of Polyamine Analogues on L1210 Cells,” Cancer Res. 49: 2959-2964 (1989); Bergeron, R. J., McManis, J. S., Liu, C. Z., Feng, Y., Weimar, W. R., Luchetta, G. R., Wu, Q., Ortiz-Ocasio, J., Vinson, J. R. T., Kramer, D., Porter, C., “Antiproliferative Properties of Polyamine Analogues: A Structure-Activity Study,” J. Med. Chem. 37: 3464-3476 (1994); and Bergeron, R. J., Weimar, W. R., Wu, Q., Feng, Y., McManis, J. S., “Polyamine Analogue Regulation of NMDA MK-801 Binding: A Structure-Activity Study,” J. Med. Chem. 39: 5257-5266 (1996). Briefly, cell suspensions were incubated in 1 mL of culture medium containing radiolabeled SPD alone or radiolabeled SPD in the presence of graduated concentrations of a chelator or derivative. At the end of the incubation period, the tubes were centrifuged; the pellet was washed, digested, and neutralized prior to scintillation counting. Lineweaver-Burk plots indicated a simple competitive inhibition with respect to SPD.
The molecules of interest were studied for their ability to compete with [^3H]SPD for uptake into L1210 leukemia cell suspensions in vitro. Briefly, cell suspensions were incubated in 1 mL of culture medium containing radiolabeled SPD alone or radiolabeled SPD in the presence of graduated concentrations of chelator or conjugate. At the end of the incubation period, the tubes were centrifuged; the pellet was washed, digested, and neutralized prior to scintillation counting. Lineweaver-Burk plots indicated simple competitive inhibition with respect to SPD.

[7] = tested on: polyamine pools in L1210 cells; assay: Effect on native polyamine pools in L1210 cells (HPLC); format: cell-based, murine; details: for activity at 0.2 µM: L1210
Protocol: At the end of the treatment period, cell suspensions were sampled, washed three times in ice-cold, incomplete medium, and pelleted for extraction using 0.6 N perchloric acid, then freeze-fractured in liquid nitrogen/hot water three times. Each supernatant was frozen at −20° C. until analysis of polyamine content by HPLC. […] The buffer consisted of potassium phosphate (10 mM) and EDTA (2 mM), pH 2.9.

[8] = tested on: chelator-promoted iron excretion; assay: Iron clearance in the bile duct-cannulated rat; format: in vivo; details: for iron-clearing efficiency: bile duct-cannulated rat
Protocol: In this model, chelator-promoted iron excretion is measured in both the bile and the urine. Furthermore, because the method allows for collection of multiple bile samples, the kinetics of iron excretion can be determined. In each instance, the drugs were given subcutaneously. L1 and its SPM conjugate (4 and 5) were administered at a dose of 450 μmol/kg and (S)-4′-(HO)-DADFT (8) and its NSPD conjugates (9 and 10) were administered at a dose of 300 μmol/kg, i.e., all at equivalent iron-binding capacity.

L1210 leukemia cells [9] = details: extracellular 30 μM; cited from earlier work
[10] = tested on: Murine L1210 leukemia cells; details: cited from earlier work
polyamine transporter [11] = details: L1210 cell suspensions; read-out: Ki, competition for the polyamine transport apparatus (historical numbers); cited from earlier work
[12] = Mus musculus, 48 h exposure, read-out: IC50, 48 h
[13] = Mus musculus, 96 h exposure, read-out: IC50, 96 h
[14] = L1210 cells, treatment concentration 100 μM
[15] = rat, 450 μmol/kg subcutaneously
[16] = rat, 300 μmol/kg subcutaneously

Work on `Cc1c(O)c(=O)ccn1CCCNCCCCNCCCN` (as salt: hydrochloride) [Compound 3, 1-(12-Amino-4,9-diazadodecyl)-2-methyl-3-hydroxy-4(1H)-pyridinone Tetrahydrochloride] yielded a melting point of 216 to 218 °C.

For `CC(=O)NCCCNCCCCNCCCN` [AcSPM, N^1-Acetylspermine], the “AdoMetDC activity, % of control” value [1] was 86±11 % of control, the “intracellular concentration (analogue accumulation)” value (L1210 leukemia cells [2]; treatment concentration 100 μM) was 1.62 mM and the IC50 [3, 12] was greater than 100 µM. The IC50 [3, 13] was greater than 100 µM, the “ODC activity, % of control” value [4] was 25±11 % of control and the “SSAT activity, % of control” value [5] was 180±11 % of control. The Ki (polyamine transporter [6]) was 10 µM, the “putrescine, percent of control” value [7, 14] was “substantial effect” and the “spermidine, percent of control” value [7, 14] was “slight decrease”. The “spermine, percent of control” value [7, 14] was “increased”.

With `Cc1c(O)c(=O)ccn1CCCNCCCCNCCCN` [Compound 3, 1-(12-Amino-4,9-diazadodecyl)-2-methyl-3-hydroxy-4(1H)-pyridinone Tetrahydrochloride] the iron-clearing efficiency ([8]; 450 μmol/kg subcutaneously) was 1.8±0.9%, the “share of excreted iron in the bile” value [8, 15] was 53% and the “share of excreted iron in the urine” value [8, 15] was 47%. The “AdoMetDC activity, % of control” value [1] was 77±11 % of control, the “intracellular concentration relative to that attained by parent ligand L1” value (L1210 leukemia cells [2]) was “several hundred times higher” and the “intracellular concentration over extracellular treatment concentration” value (L1210 leukemia cells [2]) was “more than 1900 fold”. The “intracellular concentration over extracellular treatment concentration” value (L1210 leukemia cells [2]; listed as 1-(12-amino-4,9-diazadodecyl)-2-methyl-3-hydroxy-4-(1H)-pyridinone) was 1900 fold, the intracellular level (L1210 leukemia cells [2]; extracellular 0.2 μM) was 390 µM and the “intracellular concentration (analogue accumulation)” value (L1210 leukemia cells [2]; treatment concentration 0.2 μM) was 0.39 mM. For the same molecule, the IC50 [3, 12] was 0.2 µM, the IC50 [3, 13] was 0.2 µM and the “ODC activity, % of control” value [4] was 20±4 % of control. The “SSAT activity, % of control” value [5] was 275±6 % of control, the activity at 0.2 µM ([7]; Mus musculus, read-out: putrescine, percent of control) was 33% and the activity at 0.2 µM ([7]; Mus musculus, read-out: spermidine, percent of control) was 64%. The activity at 0.2 µM ([7]; Mus musculus, read-out: spermine, percent of control) was 139%.

Work on `COC(=O)c1ccc(C(=O)NCCCNCCCCN)cc1` [Compound 6, N^1-terephthaloylspermidine methyl ester] yielded a Ki (polyamine transporter [6]) of 3.1 µM.

In the case of `NCCCCNCCCNC(=O)c1ccc(C(=O)O)cc1` [Compound 7, N^1-terephthaloylspermidine], the intracellular level (L1210 leukemia cells [2]; extracellular 100 μM) is reported as less than 70 µM, the Ki (polyamine transporter [6]) is reported as 27 µM and the “fold increase of Ki of the free acid over the corresponding ester” value (polyamine transporter [6]; L1210 cells) is reported as 9 fold.

For `C[C@]1(C(=O)O)CSC(c2ccc(O)cc2O)=N1` [Compound 8, 2-(2,4-dihydroxyphenyl)-4-(S)-methylthiazoline-4-carboxylic acid], the iron-clearing efficiency ([8]; 300 μmol/kg subcutaneously) was 1.1±0.6%, the intracellular level (L1210 leukemia cells [2]; extracellular 100 μM) was no more than 50 µM and the IC50 [3, 12] was 19 µM. For the same molecule, the IC50 [3, 13] was 20 µM.

For `CCOC(=O)[C@@]1(C)CSC(c2ccc(OCCCCNCCCNCCCN)cc2O)=N1` [Compound 9], the iron-clearing efficiency ([8]; 300 μmol/kg subcutaneously) was 13.6±3.3%, the “biliary ferrokinetics (in words)” value [8, 16] was “protracted biliary iron clearance” and the intracellular level (L1210 leukemia cells [2]; extracellular 100 μM) was 947 ± 110 µM. The IC50 [3, 12] was 1.5 µM, the IC50 [3, 13] was 1.5 µM and the Ki (polyamine transporter [6]) was 5.7 µM.

With `C[C@]1(C(=O)O)CSC(c2ccc(OCCCCNCCCNCCCN)cc2O)=N1.Cl.Cl.Cl` [Compound 10, (S)-4,5-dihydro-2-[2-hydroxy-4-(12-amino-5,9-diazadodecyloxy)phenyl]-4-methyl-4-thiazolecarboxylic acid trihydrochloride] the “biliary ferrokinetics (in words)” value [8, 16] was “protracted biliary iron clearance”, the “drug species found in tissues of dosed animals” value ([8]; rat, subcutaneous) was “contained largely free acid” and the intracellular level (L1210 leukemia cells [2]; extracellular 100 μM) was “about 70 μM”. It also gave an IC50 [3, 12] of 40 µM, an IC50 [3, 13] of 40 µM and a Ki (polyamine transporter [6]) of 73 µM.

For `Cc1c(O)c(=O)ccn1C` [Compound L1, 1,2-Dimethyl-3-hydroxypyridin-4-one], the iron-clearing efficiency ([8]; 450 μmol/kg subcutaneously) was 2.2±0.9%, the “share of excreted iron in the bile” value [8, 15] was 74% and the “share of excreted iron in the urine” value [8, 15] was 26%. The “AdoMetDC activity, % of control” value [1] was 120±4 % of control, the intracellular level (L1210 leukemia cells [2]; extracellular 50 μM) was 1 µM and the IC50 [3, 12] was 46 µM. The IC50 [3, 13] was 55 µM, the “ODC activity, % of control” value [4] was 114±5 % of control and the “SSAT activity, % of control” value [5] was 108±58 % of control. For the same molecule, the “putrescine, percent of control” value ([7]; L1210 cells, treatment 50 μM) was “remained close to control levels”, the “spermidine, percent of control” value ([7]; L1210 cells, treatment 50 μM) was “remained close to control levels” and the activity at 50 µM ([7]; Mus musculus, L1210 cells, treatment 50 μM, read-out: spermine, percent of control) was 127%.

For `CCNCCCNCCCCNCCCNCC` [DESPM], the “intracellular level (previous studies)” value (L1210 leukemia cells [9]) is listed as 400 µM, the IC50 ([3]; 48 h exposure, read-out: IC50, 48 h) is listed as 30 µM and the IC50 ([3]; 96 h exposure, read-out: IC50, 96 h) is listed as 0.2 µM.

With `CC(=O)N(O)CCCCCNC(=O)CCC(=O)N(O)CCCCCNC(=O)CCC(=O)N(O)CCCCCN` [DFO] the IC50 [3, 12] was 7 µM and the IC50 [3, 13] was 6 µM.

With `FC(F)(F)CNCCCNCCCCNCCCNCC(F)(F)F` [FDESPM] the intracellular level (L1210 leukemia cells [2]; extracellular 100 μM) was less than 20 µM, the IC50 ([3]; exposure time not given, read-out: IC50) was greater than 100 µM and the “competition for / uptake by the polyamine transporter (in words)” value (polyamine transporter [6]; L1210 cells) was “poor Ki”.

In the case of `CCNCCCNCCCCNCCCN` [MESPM, N^1-ethylspermine], the “intracellular concentration (analogue accumulation)” value (L1210 leukemia cells [2]; treatment concentration 100 μM) is reported as 1.24 mM.

In the case of `CCCNCCCCNCCCN` [MPSPD(N^8), N^8-propylspermidine], the IC50 ([10]; 48 h exposure, read-out: IC50, 48 h (historical numbers)) is given as greater than 100 µM, the IC50 ([10]; 96 h exposure, read-out: IC50, 96 h (historical numbers)) is given as 55 µM and the “AdoMetDC activity, % of control” value [1] is given as 64 % of control. The “intracellular concentration (analogue accumulation)” value (L1210 leukemia cells [2]; treatment concentration 100 μM) was 3.52 mM, the “SSAT activity, % of control” value [5] was 500 % of control and the Ki (polyamine transporter [11]) was 8.5 µM. For the same molecule, the “putrescine, percent of control” value [7, 14] was “lowered”, the “spermidine, percent of control” value [7, 14] was “lowered” and the activity at 100 µM ([7]; Mus musculus, L1210 cells, treatment concentration 100 μM, read-out: spermine, percent of control) was 103%.
